# How the values were obtained:
# Wistar rats [1] = assay: Open-field activity as a measure of sedation; format: in vivo; conditions: PO daily for 14 days, vehicle 9062 ± 597
# Procedure: (§1) Wistar rats (16 per group) were dosed either with individual components (L-theanine, magnolia/phellodendron, and milk whey protein) or several combinations of the three, including the three-way combination (theanine+magnolia/phellodendron+milk whey protein). Magnolia/phellodendron combination was provided as a commercially available preparation (RELORA; InterHealth Nutraceuticals, Inc., Benicia, CA). Administered milk whey protein was standardized to 80% alpha-lactalbumin. The rats were dosed daily for 14 days, and then a series of behavioral assays were performed to detect any anxiolytic effects on the rats or sedative effects. The treatment groups were as follows: • 1: L-theanine+magnolia/phellodendron • 2: L-theanine+Milk Whey Protein • 3: magnolia/phellodendron+Milk Whey Protein • 4: L-theanine+magnolia/phellodendron+Milk Whey Protein • 5: L-theanine • 6: magnolia/phellodendron • 7: Milk Whey Protein
# Locomotor activity in an open field test is a good measure of the sedative properties of a compound. As one example, a noted side-effect of many anxiolytic compounds such as benzodiazepines is marked sedation in conjunction with administration. […]
# This test is performed by placing a rat in an open, brightly lit enclosure. The rats are videotaped, and the total distance the rat travels during the testing period is recorded as an indicator of locomotor activity. […]
# glutamate = assay: Acute glutamate output in hippocampal microdialysate after the 7th daily dose; format: in vivo, C57BI mice; conditions: after 7th daily dose, % of basal output
# Procedure: (§2) Neurotransmitter release patterns in the brain were measured by a procedure which involved inserting a probe into the […] region (microdialysis probe) of a laboratory animal and flushing the probe via dialysis with an artificial cerebrospinal fluid (CSF). This is an accepted and common method used to obtain and measure in vivo brain levels of neurotransmitters and other small […].
# (§3) The fluid being collected represents the extracellular or interstitial fluid found in the hippocampal region of the brain. This area is usually the preferred and typical area for microdialysis analysis because any changes measured in this area of the brain are believed to correspond with approximately 80% of whole brain tissue. […]
# (§4) For the evaluation, male C57BI mice were divided into groups (6 per group) and administered a variety of compounds or a placebo orally for seven days. […] Each aliquot was then analyzed to determine the amount of GABA, glutamate, and serotonin (5-HT) in each sample. […]
# (§5) First, basal output levels of each neurotransmitter were measured to determine any long-term, chronic effects of each compound on the neurotransmitters. […] These levels were determined by averaging the levels of each neurotransmitter in the three, 30-minute aliquots prior to the administration of the 7th daily dose (Sample −90 min to −60, Sample −60 minutes to −30, and Sample −30 minutes to time 0). […]
# Wistar rats [2] = assay: Elevated plus-maze (EPM) test; format: in vivo; conditions: PO daily for 14 days, 16 per group, vehicle 10 ± 2
# Procedure: as §1
# The elevated plus-maze (EPM) capitalizes on the natural aversion (trait anxiety) of rodents on brightly lit, open, and elevated areas. The EPM has very strong predictive ability and is often used to profile the potential anxiolytic activity of compounds. During this test, the rats are videotaped after being placed in the elevated maze. The videos are analyzed to determine the % of time the rats stay in the open, elevated portions of the maze. […]
# serotonin (5-HT) = assay: Basal serotonin (5-HT) output in hippocampal microdialysate after 6 daily oral doses; format: in vivo; conditions: male C57BI mice, basal level before 7th dose, hippocampal dialysate, student's t-test p<0.05
# Procedure: as §2, §3, §4, §5
# GABA = assay: Acute GABA output in hippocampal microdialysate after the 7th daily dose; format: in vivo, C57BI mice; conditions: up to 210 minutes after 7th daily dose, % of basal output, ANOVA p<0.05
# Procedure: as §2, §3, §4, §5
smiles,measurement,setting,value
"CCNC(=O)CC[C@H](N)C(=O)O [Compound A, L-theanine]",Mean Distance (cm) ± SEM,Wistar rats [1],9971 ± 652 cm
same,immediate treatment effect on glutamate levels,glutamate,"neither the individual components (A, B, C) nor the combination (A+B+C) had an immediate treatment effect"
same,Mean % Time in open arms ± SEM,Wistar rats [2],13 ± 2%
same,effect on basal output of serotonin (5-HT) vs placebo,serotonin (5-HT),"none of L-theanine, Relora, nor milk whey protein had any significant effect"
same,acute treatment effect on GABA vs placebo (ANOVA),GABA,no statistically significant treatment effects
